These are literature values, as cited in patent US20080274215A1, “COMPOSITION FOR TREATMENT OF COLD AND FLU” (NORTHERN HOLDINGS INC., priority 2007, published 2008).

As to `C=C1CCC2C(C)(CO)C(O)CCC2(C)C1C/C=C1/C(=O)OCC1O` (stereo not shown) [AG, 3-[2-[decahydro-6-hydroxy-5-(hydroxymethyl)-5,8a-dimethyl-2-methylene-1-napthalenyl]ethylidene]dihydro-4-hydroxy-2(3H)-furanone], the solubility in water result is on record as “sparingly soluble”.
